Experiment: gradient 5% acetonitrile 3 min, to 50% in 2 min, to 85% in 15 min, held 3 min, 100 µL/min
Conditions: column: Zorbax Extend-C18 2.1 x 50 mm; eluents: water / acetonitrile, 0.1% formic acid
Outline: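 Standards, all pure, were combined into mixtures of ~100 molecules and run at 100 μL/min on a Zorbax Extend-C18 column (2.1 × 50 mm, 1.8 μm) with water and acetonitrile, each containing 0.1% formic acid. A coupled quadrupole time-of-flight mass spectrometer operated in positive and negative ionization mode. Retention time values come from computationally picked adduct peaks, each inspected manually.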

RP-LC retention time | Structure (SMILES)
704 s | CN(C)c1ccc(CNC(=O)Cc2cn(C)c3ncccc23)cc1
1220 s | CC1=NS(=O)(=O)N(Cc2ccccc2)C=C1C(=O)OCc1ccc(C)cc1C
700 s | COc1ccc(-c2nc3ncccn3c2Nc2ccccc2)cc1
1010 s | Cc1ccc2c(c1)N(Cc1ccccc1)N=C(C(=O)N1CCCCC1)S2(=O)=O
1330 s | CCc1ccc(-c2csc(Nc3ccc(Br)cn3)n2)cc1
742 s | Cc1cc(NC(=O)C(=O)NCc2nc(-c3ccccc3)no2)no1
1020 s | Cc1cc(C(=O)N2CCCCC2)c2c(=O)n(Cc3ccc(Cl)cc3)c(=O)n(C)c2n1
1240 s | CCc1ccc(NC(=O)Cc2c(C)nn(-c3nc(-c4ccc(F)cc4)cs3)c2C)cc1
831 s | COc1ccc(-c2nc(C)c(CCNS(=O)(=O)c3ccc4c(c3)OCCO4)s2)cc1
675 s | CC(=O)Nc1ccc(NC(=O)C2CC(=O)N(CCc3c[nH]c4ccc(F)cc34)C2)cc1 (configuration not stated)
618 s | O=C(CCC1CCCN(c2cc(NC3CC3)ncn2)C1)N1CCCN(c2ncccn2)CC1 (configuration not stated)
1230 s | CCC(C)(C)NS(=O)(=O)c1cccc(-c2nc(-c3ccccc3)no2)c1
788 s | CCc1noc2nc(C)n(CC(=O)NCc3ccccc3F)c(=O)c12
873 s | CCNc1nc(NC(C)(C)C)nc(-n2cnc(SC)n2)n1
592 s | COC(=O)N1CCN(CCNC(=O)C2(c3ccc(Cl)cc3)CCCC2)CC1
730 s | COc1ccc(Nc2c(-c3ccc(OC)c(OC)c3)nc3cnccn23)cc1
790 s | Cn1nc(C(=O)NCc2ccc(F)cc2)c2c1CCN(C(=O)c1ccc(Br)o1)C2
893 s | CCc1noc(-c2ccc(-n3ncc(C(=O)N4CCSCC4)c3C)nc2)n1
1140 s | CC(C)(C)OC(=O)Cn1cnc2c(-c3ccc(Br)cc3)csc2c1=O
815 s | CCc1cccc(NC(=O)C2CCCN(c3nnc(C)c4c(C)n(-c5ccccc5)nc34)C2)c1 (configuration not stated)
1100 s | O=C(Cn1cccc1-c1nc(-c2ccc(Cl)cc2)cs1)N1CCN(c2ncccn2)CC1
714 s | CCC(=O)N1CCc2cc(N3CC(C(=O)Nc4ccc(OC)cc4)CC3=O)ccc21 (configuration not stated)

RP-LC retention time | Structure (SMILES)
735 s | Cc1noc2ncn(CC(=O)Nc3ccc(F)cc3)c(=O)c12
1070 s | CC1CCc2c(sc3ncn4c(=O)n(CC(=O)N5CCc6ccccc6C5)nc4c23)C1 (configuration not stated)
687 s | COc1ccccc1CN1CCc2nc(N3CCN(c4ccccc4OC)CC3)ncc2C1
1000 s | COc1ccc(-c2noc(-c3nnn(Cc4nc(-c5ccccc5OC)oc4C)c3C)n2)cc1OC
590 s | Fc1ccccc1CN1CCc2nc(N3CCOCC3)ncc2C1
1170 s | Cc1nn(-c2ccc(-c3ccccc3)nn2)c(C)c1S(=O)(=O)N1CCCC(C)C1 (configuration not stated)
822 s | O=S(=O)(c1cccn2cnnc12)N(Cc1cccc(F)c1)c1ccc(F)cc1
663 s | CCOC(=O)N1CCN(C(=O)c2nn(-c3ccccc3C)c(=O)cc2OC)CC1
761 s | CCc1ccc(-c2cc3c(=O)n(Cc4noc(CN5CCCCC5C)n4)ccn3n2)cc1 (configuration not stated)
668 s | CCNS(=O)(=O)c1cc(-c2c(CC)noc2NC(C)=O)ccc1OC
806 s | CCN1c2ccc(C)cc2C(=O)NC12CCN(C(=O)c1ccccc1F)CC2
873 s | CCC1CN(C(=O)N2CCC(C(=O)NCCCOC(C)C)CC2)c2cc(C)ccc2O1 (configuration not stated)
800 s | CCOC(=O)c1oc2ccccc2c1NC(=O)c1ccccc1S(C)(=O)=O
872 s | Cc1ccsc1CCNC(=O)C1CCN(S(=O)(=O)c2ccc3c(c2)sc(=O)n3C)CC1
571 s | COc1ccc(C(=O)N2CCN(c3cc(C)n4cnnc4n3)CC2)cn1
582 s | CCN1CCN(c2ncnc3c2cnn3-c2ccccc2Cl)CC1
1040 s | O=C(Nc1ccccc1SCc1nnc(-c2ccccc2)o1)c1ccc(Br)o1
821 s | COc1ccc(-n2cc(-c3nc(-c4ccccn4)no3)c3ccccc3c2=O)cc1OC
857 s | CCOC(=O)c1nnc2c(-c3ccc(F)cc3)c(C)nn2c1N
730 s | CNC(=O)[C@H]1O[C@@H](n2cnc3c(NCc4cccc(I)c4)ncnc32)C(O)[C@H]1O (some centres not stated)
1040 s | COc1ccc(C)cc1NC(=O)Cn1nc(N2CCSCC2)c2ccccc2c1=O
593 s | CCCNC(=O)C1CCN(c2ccc(SCC(=O)Nc3ccc(S(C)(=O)=O)cc3)nn2)CC1

RP-LC retention time | Structure (SMILES)
874 s | Cc1ccc2c(c1)N(c1ccc(N(C)C)cc1)C=C(C(=O)N1CCCC1)S2(=O)=O
1010 s | COc1cc(-c2nnc(-c3cccc(S(=O)(=O)N4CCCCC4)c3)o2)cc(OC)c1OC
973 s | O=C(c1cn(-c2cc(N3CCCCC3)ncn2)cn1)N1CCc2ccccc2C1
1240 s | COc1ccc(-c2noc(-c3ccc(N4CCN(c5ccc(OC)cc5)CC4)nc3)n2)cc1
864 s | Cc1onc(-c2ccccc2Cl)c1C(=O)Nn1cnc2c(cnn2C(C)(C)C)c1=O
580 s | CCC(=O)N1CCc2cc(N3CC(C(=O)N4CCN(C(C)C)CC4)CC3=O)ccc21 (configuration not stated)
1010 s | CCOC(=O)c1ccccc1NC(=O)Cn1c(=O)n(-c2ccc(F)cc2)c(=O)c2c1cc(C)n2C
942 s | CCOC(=O)c1ccc(NC(=O)N2CCCC2c2cc(C(C)C)no2)cc1 (configuration not stated)
592 s | O=C(CN1CCCC(COCc2ccccc2)C1)NCc1ccc2c(c1)OCO2 (configuration not stated)
1150 s | O=S(=O)(Nc1ccc(F)cc1)c1cccnc1Nc1ccc(Br)cc1
865 s | CNC(=O)c1cc2c(C)nn(-c3cccc(F)c3)c2s1
750 s | O=C(Cn1ncc2c(c1=O)N(CC1CC1)C(=O)CS2)NCc1ccc(F)cc1
647 s | CCN(Cc1ccccc1)C(=O)CN1C(=O)C2CCCCN2c2ccc(S(=O)(=O)N(C)C)cc21 (configuration not stated)
1000 s | CCn1c(=O)oc2cc(-c3noc(-c4cccc5[nH]ccc45)n3)ccc21
680 s | CCC1CN(CC(=O)NCCN(CC)CC)c2ccccc2S1 (configuration not stated)
1040 s | CCCc1noc(-c2cccnc2-n2cnc(C(=O)Nc3cc(C)cc(C)c3)c2)n1
836 s | O=C(CC1CCCCC1)NC1CCCN(c2ccc(=O)n(CC3CC3)n2)C1 (configuration not stated)
975 s | CCOc1ccc(NC(=O)CSC2CCCCC2)cc1
664 s | CC(C)C(=O)Nc1ccc2nc(N3CCN(c4ccccc4F)CC3)cc(C(=O)O)c2c1
1150 s | O=C(Cn1cccc1-c1nc(-c2ccc3c(c2)OCO3)no1)NCCC1=CCCCC1
1030 s | O=C(Cc1ccc(Cl)cc1)N1CCc2cc(-c3ccno3)ccc21
1290 s | CCOc1cc(-c2nc(C3CC(=O)N(c4ccc(F)c(Cl)c4)C3)no2)cc(OCC)c1OCC (configuration not stated)

RP-LC retention time | Structure (SMILES)
799 s | CCc1ccccc1NC(=O)N1CCC(n2cnc3ccc(C)cc3c2=O)CC1
638 s | CNC(=O)C1CCN(C(=O)Nc2ccc(NC(=O)Nc3ccc(OC)cc3)cc2)CC1
892 s | Cc1ccccc1-c1nsc(SCC(=O)NCc2ccco2)n1
794 s | CCOC(=O)c1ccc(NC(=O)Cn2c(N3CCOCC3)nc(CC)cc2=O)cc1
618 s | Cc1cccc(CCNC(=S)Nc2ccc3nc(N4CCN(C)CC4)cc(C)c3c2)c1
650 s | Brc1cccc(-c2noc(Cn3ccnc3)n2)c1
928 s | Cn1c(=O)oc2cc(-c3noc(CNC(=O)C(c4ccccc4)c4ccccc4)n3)ccc21
1070 s | O=C(Cn1cnc2c(sc3nc(-c4ccccc4)ccc32)c1=O)Nc1cc(F)cc(F)c1
902 s | CCn1cc(-c2nc(CC(=O)Nc3ccc(F)c(C)c3)cs2)c2cccnc21
665 s | c1csc(-c2nc(-c3ccnc(N4CCCC4)c3)no2)c1
730 s | Cc1ccc2nc(N3CCN(c4ccccc4F)CC3)c(-c3noc(C)n3)cc2c1
675 s | CCCNC(=O)C1CCN(c2nc3ccsc3c(=O)n2-c2cccc(OC)c2)CC1
913 s | Cc1ccccc1N1C(=O)CN(S(=O)(=O)c2ccccc2)CC1(C)C(=O)NCc1ccc(F)cc1 (configuration not stated)
702 s | COCc1nnc(NS(=O)(=O)c2ccc([N+](=O)[O-])cc2)s1
792 s | O=S(=O)(CCc1ccccc1)NCC(O)Cc1ccccc1 (configuration not stated)
796 s | CC(CNC(=O)c1nc(Cn2c(=O)oc3ccc(Cl)cc32)no1)c1ccccc1 (configuration not stated)
706 s | Fc1ccc(-c2ccc(CNCc3cccs3)o2)cc1
576 s | CCCNC(=O)c1ccc2ncnc(N3CCCC3)c2c1
981 s | CC(NC(=O)c1cn(-c2cc(-c3nc(C4CC4)no3)ccn2)cn1)c1ccccc1 (configuration not stated)
845 s | Cc1cccc(C)c1NC(=O)Cn1c(C)nc2onc(C)c2c1=O
636 s | Cc1cccc(N2CCN(Cc3nc4nc(C)cc(N5CCOCC5)n4n3)CC2)c1
